According to patent US6602854B1, “Branched multimeric Apo A-I agonist compounds” (priority 1997, dated 2003):

What was measured:
[1] = Pharmacokinetics in mice (radiolabeled peptide, intraperitoneal); assay type: in vivo; conditions: for HALF-LIFE: 2.5 mg/kg intraperitoneal
Description: In each experiment, 2.5 mg/kg radiolabeled peptide was injected intraperitoneally into mice which were fed normal mouse chow or the atherogenic Thomas-Harcroft modified diet (resulting in severely elevated VLDL and IDL cholesterol). Blood samples were taken at multiple time intervals for assessment of radioactivity in plasma.

isolated human HDL = test: Formation of pre-β like particles: displacement of human ApoA-I from isolated human HDL; assay type: binding; conditions: increasing peptide:HDL mass ratio
Description: Human HDL was isolated by KBr density ultra centrifugation at density d=1.21 g/ml to obtain top fraction followed by Superose 6 gel filtration chromatography to separate HDL from other lipoproteins. Isolated HDL was adjusted to a final concentration of 1.0 mg/ml with physiological saline based on protein content determined by Bradford protein assay. An aliquot of 300 μl was removed from the isolated HDL preparation and incubated with 100 μl ^14C-labeled peptide 4 (0.2-1.0 μg/μl) for two hours at 37° C. Five separate incubations were analyzed including a blank containing 100 μl physiological saline and four dilutions of ^14C-labeled peptide 4: (i) 0.20 μg/μl peptide:HDL ratio=1:15; (ii) 0.30 μg/μl peptide:HDL ratio=1:10; (iii) […] peptide:HDL ratio=1:5; and (iv) 1.00 μg/μl peptide:HDL ratio=1:3. Following the two hour incubation, a 200 μl aliquot of the sample (total volume=400 μl) was loaded onto a Superose 6 gel filtration column for lipoprotein separation and analysis, and 100 μl was used to determine total radioactivity loaded. The conditions for all FPLC chromatographies were as described in Section 9.4, infra.

HepG2 hepatoma cells = test: Cholesterol efflux; assay type: cell-based; conditions: peptide:DMPC complexes 1:2 (w:w), 1-25 μg/ml, 24 hours; compared with native human ApoA-I
Description: HepG2 hepatoma cells were plated into 6-well culture dishes and grown to confluence. Cells were labeled with ^3H-cholesterol by drying the cholesterol, then adding 1% bovine serum albumin (BSA) in phosphate buffered saline (PBS), sonicating the solution, and adding 0.2 ml labeling solution and 1.8 ml growth medium to the cells, so that each well contained 2 μCi of radioactivity. Cells were incubated for 24 h with the labeling medium.
Peptide (or protein):DMPC complexes were prepared at a 1:2 peptide (or protein):DMPC ratio (w:w). […] Peptide or protein concentration in the final solution was 1 mg/ml.
Labeling media was removed from the cells and the cells were washed with PBS prior to addition of complexes. 1.6 ml of growth medium was added to each well, followed by peptide (or protein): DMPC complex and sufficient PBS to bring the final volume to 2 ml per well. The final peptide or ApoA-I concentrations were 1, 2.5, 5, 7.5 and 25 μg/ml medium. After 24 hours of incubation at 37° C., the medium was removed, and the cells washed with 2 ml of 1% BSA/PBS, followed by 2 washes with 2 ml each of PBS. The amount of ^3H-cholesterol effluxed into the medium was determined by liquid scintillation counting.

[2] = HDL cholesterol in rabbits after injection of phospholipid/peptide complexes; assay type: in vivo, Male New Zealand White rabbits; parameters: HDL Cholesterol: unit not given here
Description: Small discoidal particles consisting of phospholipid (DPPC) and peptide were prepared following the cholate dialysis method. The phospholipid was dissolved in chloroform and dried under a stream of nitrogen. The peptide was dissolved in buffer (saline) at a concentration of 1-2 mg/ml. The lipid film was redissolved in buffer containing cholate (43° C.) and the peptide solution was added at a 3:1 phospholipid/peptide weight ratio. The mixture was incubated overnight at 43° C. and then dialyzed at 43° C. (24 hr.), room temperature (24 hr.) and 4° C. (24 hr.), with three changes of buffer (large volumes) at temperature point. The complexes were filter sterilized (0.22 μm) for injection and storage at 4° C.
Male New Zealand White rabbits (2.5-3 kg) were injected intravenously with a dose of phospholipid/peptide complex (5 or 10 mg/kg bodyweight, expressed as peptide) in a single bolus injection not exceeding 10-15 ml. The animals were slightly sedated before the manipulations. Blood samples (collected on EDTA) were taken before and 5, 15, 30, 60, 240 and 1440 minutes after injection. The hematocrit (Hct) was determined for each sample. Samples were aliquoted and stored at −20° C. before analysis.
Plasma Lipids. The total plasma cholesterol, plasma triglycerides and plasma phospholipids were determined enzymatically using commercially available assays according to the manufacturer's protocols (Boehringer Mannheim, Mannheim, Germany and Biomerieux, 69280, Marcy-L'étoile, France).
Lipoprotein Profiles. The plasma lipoprotein profiles of the fractions obtained after the separation of the plasma into its lipoprotein fractions were determined by spinning in a sucrose density gradient. The fractions were collected and in each individual fraction the phospholipid and cholesterol content was measured enzymatically.

PVLDLFRELLNELLEALKQKLK [peptide 4]
maximum serum concentration reached ([1]; ApoE knockout mice): ^5The maximum serum concentration reached was 17.4% injected % injected cpm
time of maximum serum concentration following injection ([1]; ApoE knockout mice): cpm at 1.46 hours following injection. r^2 = 0.973.
HALF-LIFE ([1]; ApoE knockout mice): 14.2^5 hours
maximum serum concentration reached ([1]; C57BL/6 mice, normal diet): ^1The maximum serum concentration reached was 25.7% injected % injected cpm
time of maximum serum concentration following injection ([1]; C57BL/6 mice, normal diet): cpm at 1.9 hours following injection. r^2 = 0.960.
HALF-LIFE ([1]; C57BL/6 mice, normal diet): 5.72^1 hours
time of maximum serum concentration following injection ([1]; C57Bl/6 mice, high fat diet): cpm at 2.98 hours following injection. r^2 = 0.973.
HALF-LIFE ([1]; C57Bl/6 mice, high fat diet): 5.98^2 hours
association with plasma components in mice (in words) ([1]; mice, intraperitoneal): associated with the HDL component
time the peptide remained stable in the circulation ([1]; mice, intraperitoneal): at least 6 hours
displacement of native ApoA-I from HDL (in words) (isolated human HDL): a displacement of ApoA-I was observed which increased with increasing concentration of peptide
cholesterol efflux (in words) (HepG2 hepatoma cells): more efficient at cholesterol efflux than ApoA-I
HDL Cholesterol ([2]; 10 mg/kg i.v. as peptide/DPPC complexes, 15 min.): 428
HDL Cholesterol ([2]; 10 mg/kg i.v. as peptide/DPPC complexes, time not printed (row between 0 and 15 min.)): 408
Increase in HDL Cholesterol ([2]; 10 mg/kg, 15 min.): 31.3%
HDL Cholesterol ([2]; 10 mg/kg, 60 min.): 387
Increase in HDL Cholesterol ([2]; 10 mg/kg, 60 min.): 18.9%
HDL Cholesterol ([2]; 10 mg/kg, 240 min.): 291
Increase in HDL Cholesterol ([2]; 10 mg/kg, 240 min.): −10.7%
HDL Cholesterol ([2]; 10 mg/kg, 1440 min.): 347
Increase in HDL Cholesterol ([2]; 10 mg/kg, 1440 min.): 6.6%
duration of the increase in cholesterol of the HDL fractions ([2]; 10 mg/kg, apparent at 5 min. following injection): approximately 1 hr
Increase in HDL Cholesterol ([2]; 10 mg/kg, time not printed (row between 0 and 15 min.)): 25.2%
